Experimental data: ChEMBL document CHEMBL1201862, “PubChem BioAssay data set” (2004)
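Results reflect a 48-hour exposure of cells in 96-well plates to compound at five concentrations. At the GI50, growth is halved.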 Calls of active or inactive are those of the source. No stated cut-off is given here; in the data, active = GI50 up to about 1.1 µM and inactive = higher.

What was measured:
Test in all cases: NCI tumour cell line growth inhibition, 48 h
SK-OV-3 = tested on: SK-OV-3
UACC-257 = tested on: UACC-257
SNB-75 = tested on: SNB-75
SNB-19 = tested on: SNB-19
SF-295 = tested on: SF-295
UO-31 = tested on: UO-31
SR = tested on: SR
SF-268 = tested on: SF-268
SN12C = tested on: SN12C
OVCAR-4 = tested on: OVCAR-4
SF-539 = tested on: SF-539
NCI/ADR-RES = tested on: NCI/ADR-RES
COLO 205 = tested on: COLO 205
HOP-62 = tested on: HOP-62
TK-10 = tested on: TK-10
ACHN = tested on: ACHN
T47D = tested on: T47D
HCC 2998 = tested on: HCC 2998
HL-60 = tested on: HL-60
Hs-578T = tested on: Hs-578T

Measured: GI50

Cc1c(O)c(OC2OC(CO)C(O)C(O)C2O)cc2c1CC[C@@H]1C2(C)C(=O)C[C@]2(C)[C@@H]([C@@](C)(O)C(=O)CCC(C)(C)O)[C@H](O)C[C@@]12C (stereo partly drawn)
inactive: SK-OV-3 > 100 µM | UACC-257 > 100 µM | SNB-75 > 100 µM | SNB-19 > 100 µM | SF-295 > 100 µM | UO-31 > 100 µM | SR > 100 µM | SF-268 > 100 µM | SN12C > 100 µM | OVCAR-4 > 100 µM | SF-539 > 100 µM | NCI/ADR-RES > 100 µM | COLO 205 > 100 µM | HOP-62 > 100 µM | TK-10 > 100 µM | ACHN > 100 µM | T47D > 100 µM | HCC 2998 > 100 µM

N#Cc1c(Cl)c(C=O)c(=O)n2c1[nH]c1ccccc12
inactive: HL-60 42.6 µM | SK-OV-3 > 100 µM | UACC-257 56.8 µM | SNB-75 42.1 µM | SNB-19 63.8 µM | SF-295 35.9 µM | UO-31 46.2 µM | SR 10 µM | SF-268 38.6 µM | SN12C 61.8 µM | OVCAR-4 84.5 µM | SF-539 35.9 µM | NCI/ADR-RES 28.3 µM | COLO 205 59.7 µM | HOP-62 39 µM | TK-10 > 100 µM | Hs-578T 45.1 µM | ACHN 84.3 µM | HCC 2998 > 100 µM

CC(CO)C1C[C@H](O)[C@@]2(C)CC(=O)C=C(CO)[C@@H]2C1 (stereo partly drawn)
inactive: HL-60 92 µM | SK-OV-3 > 100 µM | UACC-257 > 100 µM | SNB-75 > 100 µM | SNB-19 > 100 µM | SF-295 > 100 µM | UO-31 > 100 µM | SF-268 > 100 µM | SN12C > 100 µM | OVCAR-4 > 100 µM | SF-539 > 100 µM | NCI/ADR-RES > 100 µM | COLO 205 > 100 µM | HOP-62 > 100 µM | TK-10 > 100 µM | ACHN > 100 µM | T47D > 100 µM | HCC 2998 > 100 µM

COc1ccc(-n2c(=O)c3nc[nH]c3n(-c3ccc(OC)cc3)c2=S)cc1
inactive: HL-60 > 100 µM | SK-OV-3 > 100 µM | UACC-257 > 100 µM | SNB-75 > 100 µM | SF-295 > 100 µM | UO-31 > 100 µM | SR > 100 µM | SF-268 > 100 µM | SN12C > 100 µM | OVCAR-4 > 100 µM | SF-539 > 100 µM | NCI/ADR-RES > 100 µM | COLO 205 > 100 µM | HOP-62 > 100 µM | TK-10 > 100 µM | ACHN > 100 µM | T47D > 100 µM | HCC 2998 > 100 µM

Cc1cc(=O)oc2c(OS(C)(=O)=O)c(OS(C)(=O)=O)ccc12
inactive: HL-60 > 100 µM | UACC-257 > 100 µM | SNB-19 > 100 µM | SF-295 > 100 µM | UO-31 > 100 µM | SR > 100 µM | SF-268 > 100 µM | SN12C > 100 µM | OVCAR-4 > 100 µM | SF-539 > 100 µM | NCI/ADR-RES > 100 µM | COLO 205 > 100 µM | HOP-62 > 100 µM | TK-10 > 100 µM | Hs-578T > 100 µM | ACHN > 100 µM | HCC 2998 > 100 µM

O=C(Nc1ccc(C(F)(F)F)cc1[N+](=O)[O-])C(=O)C(C(=O)c1ccc2ccccc2c1)C1OC(=O)c2ccccc21 (stereo not drawn)
inactive: HL-60 8.28 µM | SK-OV-3 26.5 µM | UACC-257 10.1 µM | SNB-75 6.97 µM | SNB-19 8.51 µM | SF-295 4.85 µM | UO-31 13.8 µM | SR 2.81 µM | SF-268 4.16 µM | SN12C 12.9 µM | OVCAR-4 20.6 µM | SF-539 1.63 µM | COLO 205 8.75 µM | HOP-62 5.74 µM | TK-10 18.5 µM | ACHN 13.3 µM | HCC 2998 5.89 µM

CC(C)=C[C@H]1CCC2(OCCO2)[C@]1(C)CO
inactive: SK-OV-3 > 100 µM | UACC-257 > 100 µM | SNB-75 > 100 µM | SNB-19 > 100 µM | SF-295 > 100 µM | UO-31 > 100 µM | SF-268 > 100 µM | SN12C > 100 µM | OVCAR-4 > 100 µM | SF-539 > 100 µM | NCI/ADR-RES > 100 µM | COLO 205 > 100 µM | TK-10 > 100 µM | ACHN > 100 µM | T47D > 100 µM | HCC 2998 > 100 µM
